Test results as given in patent US8546095B2, “Methods for determination of calcineurin activity and uses in predicting therapeutic outcomes” (Emory University, priority 2007, dated 2013).
“Also recorded” adds a separate entry of the source.

Experiments:
calcineurin [1] = test: Radiometric calcineurin assay in isolated T cells after T cell receptor stimulation with anti-CD3/anti-CD28 antibodies, with or without inhibitor pre-treatment; assay type: cell-based, human; conditions: for effect of pre-treatment on anti-CD3/anti-CD28-stimulated calcineurin activity (words): control T cells, tacrolimus/FK506 5 ng/ml, cyclosporine A printed as 500 ng/ml, 5 μg/ml or 5 mg/ml
Protocol: (§1) 40 mLs of heparinized blood was collected from the study participants. T cells were then isolated using the Prepacyte SC reagent (BioE WBP2000 St. Paul Minn.) antibody negative selection and Vitalyse (BioE KI-135) treated to eliminate remaining erythrocytes. Cells were pelleted by centrifugation, washed with 1× phosphate-buffered saline, and resuspended in RPMI 1640 containing penicillin/streptomycin antibiotics, 10% fetal calf serum, 2 mM 1-glutamine, 25 mM glucose, and 1 mM sodium pyruvate.
(§2) Calcineurin activity was determined using an in vitro assay as described in Fruman et al, Methods in Enzymology 9, 146-154 (1996) and Lea et al., J Am Soc Nephrol 13, 1750-1756 (2002), both of which are incorporated herein by reference in their entireties. Following treatment, isolated lymphocytes were pelleted and then re-suspended in calcineurin buffer ([…], 250 μM KCl, 10 mg/ml BSA, 5 mg/ml DTT, pH 7.5). Cells were then lysed by three cycles of freeze-thawing in liquid nitrogen and a 37° C. water bath. The concentration of harvested proteins was determined by the BCA method (Pierce Biotechnology, Rockford, Ill.) and then […] of sample was incubated with equal volumes of calcineurin reaction buffer (100 nM calmodulin, 0.1 mM CaCl, 25 μgs calyculin, 3 μg cold RII peptide) and 30 γ^32P[ATP]-labeled RII peptide substrate.
(§3) The reaction was allowed to proceed for 10 minutes, and then 10 mgs/ml charcoal/TCA solution was added to each sample to stop the reaction. Finally, samples were passed through millipore filtration buckets, scintillation fluid added, and the amount of released phosphates read in an automated counter. Reactions were performed in triplicate and final data for subjects were calculated as the mean of triplicate samples minus control reactions to normalize for background.
T cell isolates were stimulated for 15 minutes with multiple agents including calcium ionophore, phorbal myristate […] (PMA), and anti-CD3/CD28 antibodies. […] Next, T cells were pre-treated for 30 minutes with cyclosporine (5 mg/ml) or FK506 (5 ng/ml) and then CD3/CD28-mediated stimulation was measured.

[2] = human, in vivo
Protocol: Stimulation of calcineurin activity was also determined for caucasian and African-American transplant patients. […] Trough blood levels of FK506 for both caucasian and African-American transplant patients were obtained at the time of T cell isolation.

calcineurin [3] = test: Fluorimetric calcineurin assay in cultured primary renal fibroblasts
Protocol: FIG. 16A: Cultured renal fibroblasts were treated with a variety of stimuli including arginine vasopressin (AVP), dexamethasone, and phorbol myristate acetate (PMA) to induce calcineurin activity. In addition, some cells were pre-treated with calcineurin inhibitors prior to the addition of PMA. Cells were lysed according to previously established methods and then calcineurin activity was determined. Data shown is the mean+/−SEM of triplicate samples compared to a standard curve. […] Tissues were lysed according to previously established methods and calcineurin activity determined. Data shown are the mean+/−SEM of triplicate samples compared to a standard curve.
When the absorbance values obtained were compared to a standard curve of recombinant calcineurin run simultaneously, a determination of calcineurin activity in each condition can be made.

calcineurin [4] = test: Fluorimetric calcineurin assay in isolated PBMCs (PMA or anti-CD3 stimulation, in vitro calcineurin inhibitors); assay type: cell-based, human
Protocol: It was also shown that the fold change in calcineurin activity in response to anti-CD3 was sensitive to tacrolimus inhibition. Thus, PBMCs from control subjects were incubated with increasing amounts of tacrolimus before the anti-CD3 stimulation and the calcineurin activity was then measured.
It was further determined whether in vitro addition of calcineurin inhibitors could further inhibit calcineurin activity in samples from transplant subjects.
(i) Collection of samples. Heparinized blood can be obtained by routine phlebotomy and PBMC isolated and frozen in 10% DMSO. Samples will be thawed and viability confirmed prior to treatment.
(ii) Treatment of T cells. Three parameters of calcineurin activity: 1) base-line levels of the enzyme; 2) the increase in calcineurin in response to general stimuli; and, 3) the response of calcineurin to T cell receptor specific activation.
PBMCs were thawed, viable cells counted and then separated into aliquots of about 2×10^5 cells. Based on preliminary experiments, samples were treated with anti-CD3 (Muromonab, 10 μg/ml) antibodies for 15 mins at 37° C. Based on preliminary dose and time curves, PMA was added to aliquots for 5 mins. Control samples were included with either no treatment or adjuvant-only (DMSO). These manipulations yielded base-line activity, maximum non-specific activation, and TCR-stimulated activity.
(iii) 20 μl diluted peptide substrate, 20 μl of reaction buffer, and 20 μl of sample were loaded into individual wells of a 96-well plate and incubated at 30° C. for 10 minutes. During the reaction time, a 96-well plate with titanium oxide-coated wells was prepared by adding 50 μl binding buffer (0.1% acetic acid in 10% acetonitrile) per well. After the incubation period, reactions were transferred into prepared titanium oxide-coated wells following by gentle shaking for 5 minutes. The contents of each well were then removed to a white 96-well plate preloaded with 20 μl of 3N ammonium hydroxide.

calcineurin [5] = test: Radiometric calcineurin assay, basal activity in isolated CD3+/4+ T cells treated in vitro; assay type: cell-based, human; conditions: for inhibition of basal calcineurin activity: 5 ng/ml
Protocol: as §1, §2, §3
To ensure that calcineurin activity was measured in a uniform population of cells, experiments were performed in isolated lymphocytes that were enriched for CD3^+/4^+ T cells using erythrocyte lysis, gradient centrifugation, and Prepacyte SC reagent (BioE, St. Paul Minn.).
First, T cells were isolated from control subjects and were then treated in vitro with vehicle (DMSO) or 5 ng/ml tacrolimus for 15 minutes.

recombinant calcineurin = molecular target: T1, recombinant calcineurin (Homo sapiens, UniProt Q08209); test: Fluorimetric calcineurin assay with recombinant calcineurin and standard controls; assay type: biochemical; conditions: 0.2 ng recombinant calcineurin, ANOVA
T1 construct: purchased Calbiochem (San Diego, Calif.)
Protocol: Reactions using 0.2 ng of recombinant calcineurin along with standard controls for calcineurin activity, including heat inactivation of the recombinant enzyme, addition of an autoinhibitory peptide, absence of calcium, and chelation of calcium with EGTA were investigated.
Recombinant calcineurin was from Calbiochem (San Diego, Calif.), and all other chemicals were obtained from Sigma (St Louis, Mo.). The RII peptide, Fluoresceinyl-[…]frican-AmericanE, and its phosphorylated analog (Fluoresceinyl-[…]pSVAfrican-AmericanE where pS=L-phosphoserine) were synthesized by Fmoc-based solid-phase peptide synthesis using model Liberty microwave-assisted peptide synthesizer (CEM Corporation, Matthews, N.C.). The peptides were purified to apparent homogeneity by reversed-phase HPLC and their masses were confirmed by mass spectrometry. Peptides were diluted in: Tris 50 mM, 100 mM NaCl, 0.5 mM DTT, and 0.1 mg/ml bovine serum albumen to a final concentration of 30 ng/ml. Reaction buffer consisted of 0.1 mg/ml BSA, 35 mM Tris pH 7.5, 25 mM NaCl, 2.0 mM MgCl2, 270 μM DTT, 500 μM EDTA, 419 nM Okadaic acid (in 0.63% ethanol), 25 mM CaCl2. Titanium oxide plates were pre-incubated with a binding buffer consisting of 0.1% acetic acid in 10% acetonitrile. […]

For `C=CC[C@@H]1/C=C(\C)C[C@H](C)C[C@H](OC)[C@H]2O[C@@](O)(C(=O)C(=O)N3CCCC[C@H]3C(=O)O[C@H](/C(C)=C/[C@@H]3CC[C@@H](O)[C@H](OC)C3)[C@H](C)[C@@H](O)CC1=O)[C@H](C)C[C@@H]2OC` [tacrolimus], the “effect of pre-treatment on anti-CD3/CD28-stimulated calcineurin activity” value (calcineurin [1]; African-American control subjects, listed as FK506) was “neither cyclosporine A nor FK506 significantly reduced calcineurin activity; also recorded: neither cyclosporine nor FK506 pre-treatment inhibited calcineurin activity”, the “effect of pre-treatment on anti-CD3/CD28-stimulated calcineurin activity” value (calcineurin [1]; caucasian control subjects) was “inhibited” and the “effect of pre-treatment on anti-CD3/anti-CD28-stimulated calcineurin activity (words)” value (calcineurin [1]) was “blocked the CD3/CD28 stimulation; also recorded: blocked the rise in calcineurin activity; also recorded: effective at blocking the induction”. The “effect of pre-treatment on anti-CD3/anti-CD28-stimulated calcineurin activity (words)” value (calcineurin [1]; listed as FK506) was “significantly reduced CD3/CD28-mediated calcineurin activity; also recorded: blocked stimulation”, the mean plasma level [2] was 11.4 ng/mL and the “effect of pre-treatment on PMA-stimulated calcineurin activity” value (calcineurin [3]) was “blocked stimulation by PMA”. The “effect on fold change in calcineurin activity with anti-CD3 stimulation” value (calcineurin [4]; control PBMCs incubated with increasing amounts before anti-CD3 stimulation) was “inhibited by tacrolimus in a dose-dependent fashion; also recorded: inhibited in control PBMCs in a dose-responsive manner”, the “effect on basal calcineurin activity” value (calcineurin [5]; control T cells (N=81), 5.0 ng/ml in vitro, p<0.001) was “significantly decreased calcineurin activity” and the “calcineurin activity after in vitro tacrolimus” value (calcineurin [5]; control subjects' T cells, 5 ng/ml for 15 minutes, vehicle (DMSO) 913±6) was 662±6 fmole/μg protein/min. For the same compound, the “inhibition of basal calcineurin activity” value (calcineurin [5]; female control subjects) was 30±4% and the “inhibition of basal calcineurin activity” value (calcineurin [5]; male control subjects) was 27±4%.

In the case of `CCCCCCCCCCCCCC(=O)O[C@@H]1[C@@H](C)[C@@]2(O)[C@@H](C=C(CO)C[C@]3(O)C(=O)C(C)=C[C@@H]23)[C@@H]2C(C)(C)[C@]12OC(C)=O` [PMA, phorbol myristate acetate], the “stimulation of calcineurin activity” value (calcineurin [3]) is reported as “significantly stimulated calcineurin activity”, the “stimulation of calcineurin activity” value (calcineurin [4]; control PBMCs) is reported as “stimulated calcineurin activity in control cells” and the “stimulation of calcineurin activity” value (calcineurin [4]; transplant recipient-derived PBMCs) is reported as “not in the transplant recipient-derived PBMC samples”.

For `O=C(O)CN(CCOCCOCCN(CC(=O)O)CC(=O)O)CC(=O)O` [EGTA], the “effect on dephosphorylation by recombinant calcineurin” value (recombinant calcineurin) was “significantly reduced”.

With “anti-CD3: anti-CD3 (Muromonab, 10 μg/ml) antibodies for TCR-specific activation without co-stimulation” the “stimulation of calcineurin activity” value (calcineurin [4]; control PBMCs) was “observed only in control PBMCs”.

With `NC(=O)CC[C@@H]1NC(=O)[C@H](Cc2ccccc2)NC(=O)[C@H](Cc2ccc(O)cc2)NC(=O)[C@@H](N)CSSC[C@@H](C(=O)N2CCC[C@H]2C(=O)N[C@@H](CCCN=C(N)N)C(=O)NCC(N)=O)NC(=O)[C@H](CC(N)=O)NC1=O` [Arginine vasopressin (AVP), arginine vasopressin] the “stimulation of calcineurin activity” value (calcineurin [3]) was “significantly stimulated calcineurin activity”.
